Source: the NIST ThermoML archive (doi:10.1021/je200628n)
Numbers after ± are expanded uncertainties.

Assay: activity coefficient (dimensionless); of the first substance listed, at infinite dilution; xn = mol fraction of the nth substance listed
Conditions: 101 kPa, Liquid, Chromatography, x1 = 0

| SMILES | activity coefficient (328.15 K) | activity coefficient (338.15 K) | activity coefficient (343.15 K) | activity coefficient (348.15 K) | activity coefficient (338.2 K) | activity coefficient (353.22 K) | other results |
| --- | --- | --- | --- | --- | --- | --- | --- |
| CCOCC [diethyl ether] + NCCCCCCCCCCCCN | – | – | – | – | – | – | activity coefficient (348.25 K): 4.45 ± 0.23; activity coefficient (353.15 K): 4.37 ± 0.22; activity coefficient (358.25 K): 4.33 ± 0.22; activity coefficient (363.21 K): 4.25 ± 0.22 |
| C=CCCCCC [1-heptene] + NCCCCCCCCCCCCN | – | – | – | – | – | – | activity coefficient (348.25 K): 4.43 ± 0.23; activity coefficient (353.15 K): 4.22 ± 0.22; activity coefficient (358.25 K): 4.08 ± 0.21; activity coefficient (363.21 K): 3.88 ± 0.2 |
| CCOCC [diethyl ether] + NCCCCCCCCN | 3.52 ± 0.18 | 3.4 ± 0.17 | 3.37 ± 0.17 | 3.36 ± 0.17 | – | – | – |
| C=CCCC [1-pentene] + NCCCCCCCCCCCCN | – | – | – | – | – | – | activity coefficient (348.25 K): 4.21 ± 0.22; activity coefficient (353.15 K): 4.04 ± 0.21; activity coefficient (358.25 K): 3.89 ± 0.2; activity coefficient (363.21 K): 3.75 ± 0.19 |
| C=CCCCC [hex-1-ene] + NCCCCCCCCCCN | – | – | – | 3.06 ± 0.16 | 3.37 ± 0.17 | 2.92 ± 0.15 | – |
| CCO [ethanol] + NCCCCCCCCCCCCN | – | – | – | – | – | – | activity coefficient (348.25 K): 0.828 ± 0.039; activity coefficient (353.15 K): 0.891 ± 0.04; activity coefficient (358.25 K): 0.952 ± 0.042; activity coefficient (363.21 K): 1.03 ± 0.045 |
| CCCCOC(C)=O [butyl ethanoate] + NCCCCCCCCCCN | – | – | – | 1.17 ± 0.054 | 1.5 ± 0.073 | 1.03 ± 0.046 | – |
| CCCCC [pentane] + NCCCCCCCCN | – | – | – | – | – | – | activity coefficient (328.21 K): 1.37 ± 0.065; activity coefficient (338.23 K): 1.27 ± 0.059; activity coefficient (343.19 K): 1.22 ± 0.056; activity coefficient (348.25 K): 1.16 ± 0.053 |
| CCCCOC(C)=O [butyl ethanoate] + NCCCCCCCCCCCCN | – | – | – | – | – | – | activity coefficient (348.25 K): 1.69 ± 0.084; activity coefficient (353.15 K): 1.57 ± 0.077; activity coefficient (358.25 K): 1.46 ± 0.07; activity coefficient (363.21 K): 1.36 ± 0.065 |
| CCOCC [diethyl ether] + NCCCCCCCCCCN | – | – | – | 3.69 ± 0.19 | 3.84 ± 0.2 | 3.64 ± 0.19 | – |
| ClCCl [dichloromethane] + NCCCCCCCCN | 0.657 ± 0.034 | 0.552 ± 0.032 | 0.53 ± 0.031 | 0.513 ± 0.031 | – | – | – |
| CCOC(C)=O [ethyl acetate] + NCCCCCCCCN | 1.08 ± 0.048 | 0.954 ± 0.042 | 0.902 ± 0.041 | 0.855 ± 0.039 | – | – | – |
| c1ccccc1 [benzene] + NCCCCCCCCCCN | – | – | – | 1.61 ± 0.079 | 1.72 ± 0.086 | 1.58 ± 0.077 | – |
| CCCCC [pentane] + NCCCCCCCCCCCCN | – | – | – | – | – | – | activity coefficient (348.25 K): 4.76 ± 0.24; activity coefficient (353.15 K): 4.74 ± 0.24; activity coefficient (358.25 K): 4.68 ± 0.24; activity coefficient (363.21 K): 4.63 ± 0.24 |
| CCCCC [pentane] + NCCCCCCCCCCN | – | – | – | – | – | – | activity coefficient (3.9 K): 353 ± 18; activity coefficient (4.022 K): 348 ± 18; activity coefficient (4.331 K): 338 ± 18 |
| CCO [ethanol] + NCCCCCCCCCCN | – | – | – | 0.676 ± 0.034 | 0.602 ± 0.033 | 0.718 ± 0.035 | – |

The next lines start with results.

| activity coefficient (328.15 K) | activity coefficient (338.15 K) | activity coefficient (343.15 K) | activity coefficient (348.15 K) | activity coefficient (338.2 K) | activity coefficient (353.22 K) | SMILES | other results |
| --- | --- | --- | --- | --- | --- | --- | --- |
| 3.59 ± 0.18 | 3.21 ± 0.17 | 3.03 ± 0.15 | 2.93 ± 0.15 | – | – | C=CCCCCC [1-heptene] + NCCCCCCCCN | – |
| 0.284 ± 0.028 | 0.317 ± 0.028 | 0.34 ± 0.028 | 0.369 ± 0.029 | – | – | CO [methanol] + NCCCCCCCCN | – |
| – | – | – | 2.98 ± 0.15 | 3.23 ± 0.17 | 2.88 ± 0.15 | C=CCCC [1-pentene] + NCCCCCCCCCCN | – |
| 4.36 ± 0.22 | 4.09 ± 0.21 | 4 ± 0.2 | 3.95 ± 0.2 | – | – | CCCCCCC [heptane] + NCCCCCCCCN | – |
| 0.669 ± 0.034 | 0.675 ± 0.034 | 0.681 ± 0.034 | 0.692 ± 0.035 | – | – | CCCCO [butan-1-ol] + NCCCCCCCCN | – |
| – | – | – | 5.03 ± 0.26 | 5.59 ± 0.29 | 4.78 ± 0.25 | CCCCCCCCCC [decane] + NCCCCCCCCCCN | – |
| 3.18 ± 0.16 | 2.94 ± 0.15 | 2.85 ± 0.15 | 2.77 ± 0.14 | – | – | C=CCCCC [hex-1-ene] + NCCCCCCCCN | – |
| – | – | – | 4.79 ± 0.25 | 5.24 ± 0.27 | 4.55 ± 0.23 | CCCCCCCC [octane] + NCCCCCCCCCCN | – |
